This passage reports TGI results from PubChem BioAssay (NCI).

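A five-concentration, 48-hour dose response in 96-well plates underlies each endpoint, interpolated linearly between surrounding concentrations. TGI marks complete inhibition of growth.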

As a reminder, the TGI is the concentration at which net growth stops. High values mean less potent growth arrest, low ones more potent growth arrest.

What all share (assay): DTP human tumour cell line panel, 48 h
Test [1] has as its system ACHN renal.
Test [2] deals with SF-268 CNS.
Test [3] has as its system HCC-2998 colon.
Test [4] relates to NCI-H23 lung.
The subject of test [5] is MCF7 breast.
In test [6] the test system is NCI-H226 lung.
Test [7] deals with LOX IMVI melanoma.
For test [8], the system named is TK-10 renal.
The test system of test [9] is MDA-N.
Test [10] concerns T-47D breast.
The subject of test [11] is M14 melanoma.
Test [12] has as its system DU-145 prostate.
Test [13] concerns IGROV1 ovarian.
The test system of test [14] is RPMI-8226 leukemia.
The subject of test [15] is HCT-15 colon.
Test [16] has as its system BT-549 breast.
The subject of test [17] is SK-MEL-5 melanoma.
Test [18] has as its system OVCAR-8 ovarian.
Test [19] has as its system NCI-H460 lung.

`CC(C)(C)OC(=O)Nc1cc(-c2ccccc2)co1`: the total growth inhibition concentration (TGI) in test [1] was above 100 µM; in test [2], 94.4 µM; in [3], above 100 µM; in test [4], above 100 µM; in test [5], above 100 µM; in test [6] it was above 100 µM. The TGI in [7], in test [8], in test [9], in test [10], in [11] and in [12] was above 100 µM throughout. In addition, the TGI in test [13], in test [14], in test [15], in test [16], in test [17] and in test [18] was above 100 µM each time.
As to `N#C[C@@]12CCCC(=O)[C@@H]1[C@H]1CCC[C@H]12`, the TGI was found to be 33.1 µM in [1]; 31.7 µM in [3]; 35 µM in test [4]; 49.8 µM in test [5]; 47.6 µM in [6]; 31 µM in test [7]. Further, the concentration for total growth inhibition (TGI) is 35.3 µM in test [8]; 38.4 µM in test [9]; 41.3 µM in test [10]; 30.2 µM in [11]; 28.8 µM in [12]; 32.2 µM in test [13]. The total growth inhibition concentration (TGI) worked out at 32.3 µM in test [14]; 38.2 µM in [15]; 39.2 µM in test [16]; 30.8 µM in [17]; 47.5 µM in test [18]; 32.8 µM in test [19].
As to `COc1ccc(-n2c3c(c4c(CN(C)C)c(O)ccc42)C(=O)c2ccccc2C3=O)cc1`, the total growth inhibition concentration (TGI) in test [1] was 3.9 µM; in [2], 44.9 µM; in test [3], 5.42 µM; in [4], 29.6 µM; in [5], 24.9 µM; in test [7], 7 µM. For the same molecule, the TGI in [8] stood at 36.8 µM; in [9] it was 21.2 µM; in test [10] it was 6.99 µM; in test [11], 11.8 µM; in [12], 29.2 µM; in [13], 23 µM. Also, the TGI in test [14] came to 4.88 µM; in [15], 10.5 µM; in test [16], 35.9 µM; in test [17], 5.67 µM; in [18], 20.5 µM; in test [19], 26.2 µM.
For `CCOC(=O)C1(C(=O)OCC)CC(=O)[C@@]2(C1)OCC[C@H]1OC(=O)C[C@H]12`, the total growth inhibition concentration (TGI) in test [1], in test [2], in test [3], in [4], in test [5] and in test [7] was above 100 µM each time. Besides, the TGI in test [8], in [9], in test [10], in [11], in test [12] and in [13] was above 100 µM in each case. Also, the TGI in [14], in [15], in test [16], in test [17], in [18] and in [19] was above 100 µM in each case.
`CC(=O)O[C@H]1C(=O)[C@@]2(C)[C@H]([C@H](OC(=O)c3ccccc3)[C@]3(O)C[C@H](OC(=O)[C@H](O)[C@@H](NC(=O)CC(C)C)c4ccccc4)C(C)=C1C3(C)C)[C@]1(OC(C)=O)CO[C@@H]1C[C@@H]2O`: the TGI in [1] is above 10 µM; in test [2] it was above 10 µM; in test [3], 0.0636 µM; in test [4], above 10 µM; in test [5] it was above 10 µM; in test [6], above 10 µM. Moreover, the TGI in test [7] was above 10 µM; in [8], above 10 µM; in test [9] it was above 10 µM; in test [10] it was above 10 µM; in test [11] it was above 10 µM; in [12], 0.188 µM. Besides, the TGI in test [13] is above 10 µM; in test [15] it was above 10 µM; in [16] it was above 10 µM; in [17] it was above 10 µM; in test [18] it was above 3.24 µM; in [19], above 10 µM.
As for `CC1(C)C[C@H](O)[C@H](O)[C@]23C(=O)O[C@H](O)[C@H]2C(C=O)=CC[C@@H]13`, the TGI in test [1], in test [2], in test [3], in test [4], in test [5] and in [6] was above 100 µM in each case. Besides, the total growth inhibition concentration (TGI) in test [7], in test [8], in test [9], in test [10], in test [12] and in test [13] was above 100 µM in each case. Besides, the TGI in test [14], in test [15], in test [16], in test [17], in test [18] and in test [19] was above 100 µM each time.
As for `COc1cc(/C=C/C(=O)N[C@@H]2C(=O)N3[C@@H]2SC(C)(C)[C@@H]3C(=O)O)cc(OC)c1OC`, the concentration for total growth inhibition (TGI) in test [1], in [2], in [3], in [4], in [5] and in test [6] was above 100 µM in each case. For the same molecule, the TGI in test [7], in [8], in test [9], in test [10], in [11] and in [12] was above 100 µM throughout. Further, the TGI in test [14], in [15], in test [16], in [17], in test [18] and in test [19] was above 100 µM throughout.
